15 molecules from patent publication US12655174B2, “Adenosine A3 receptor agonists, preparation methods and uses thereof” (ZHEJIANG VIMGREEN PHARMACEUTICALS, LTD., priority 2020, dated 2026) can be followed below.

Molecules are shown by their SMILES. A value given as a limit tells only on which side of the number the result lay.

Data set [1] in a line: Pharmacokinetic test of compound in SD rat. As to conditions: SD rats, intragastric administration (IG), cassette dosing. The data set is classed as in vivo. As for the experimental part: Example 28: Pharmacokinetic Test of Compound in SD Rat
The animal species used in this experiment were SD rats. There were 3 animals per group. The rats were dosed in cassette format, i.e., multiple (1-6) different compounds were dosed simultaneously to the same group of the SD rats. The vehicle used for the drug was 5% DMSO+5% Solutl+90% ([…] methylcellulose M450), and the administration route was intragastric administration (IG).

The next data set deals with T1, ADORA3 receptor (Homo sapiens, UniProt P0DMS8).
T1 sequence (P0DMS8 1-318): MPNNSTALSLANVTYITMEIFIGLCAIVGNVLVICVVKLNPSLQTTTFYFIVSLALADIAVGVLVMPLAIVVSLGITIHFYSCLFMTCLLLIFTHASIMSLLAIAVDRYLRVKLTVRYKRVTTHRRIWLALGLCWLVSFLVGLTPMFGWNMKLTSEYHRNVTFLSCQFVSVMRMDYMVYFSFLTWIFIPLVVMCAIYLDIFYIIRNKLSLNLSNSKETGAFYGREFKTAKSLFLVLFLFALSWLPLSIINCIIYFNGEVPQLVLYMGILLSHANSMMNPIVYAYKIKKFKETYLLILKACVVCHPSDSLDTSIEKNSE
Briefly: Agonistic effect on adenosine A3 receptor by FLIPR assay (calcium flux assay). Format: cell-based. As to conditions: agonist mode. The procedure: Example 27: Agonistic Effect of Compound on Adenosine A3 Receptor by FLIPR Assay (Calcium Flux Assay)
First Day: Cell Inoculation
• 1) With regard to ADORA3 receptor, cultured cells were used for inoculation: the culture medium was aspirated and the cells were washed twice with 10 mL of DPBS. 2 mL of 0.05% EDTA-trypsin was added and the cells were incubated at 37° C. for 1 minute. Then 10 mL of the culture medium was added to stop the digestion and the cell suspension was transferred to a 50-mL tapered tube. • 2) The 50-mL tapered tube containing the various cells was centrifuged at 300 g for 5 minutes. • 3) A supernatant was aspirated and no cells should be aspirated. • 4) The cell precipitate was resuspended in 6-8 mL of the culture medium, and then 0.5 mL of the cells were taken out for cell counting by using a Vi-cell XR cell viability analyzer. • 5) The cell suspension was diluted to 1×10^6 cells/mL (20 μL of 20,000 cells per well) in the culture medium and the cells were inoculated into a cell plate (384-well Poly-D-lysine protein-coated plate, Greiner-781946). • 6) The plate was placed in a 37° C./5% CO2 incubator for 16-20 hours. Second Day: • 1) Preparation of 2×Fluo-4 Direct™ uptaking dye • a. Preparation of probenecid solution • 1 mL of FLIPR assay buffer was added to 77 mg of probenecid (provided by Fluo-4 Direct™ calcium assay kit) to be prepared into 250 mM of a probenecid solution. The fresh probenecid solution was used daily. • b. 2×(8 μM) Fluo-4 Direct™ loading dye (per 10 mL)
A vial of the Fluo-4 Direct™ crystal was thawed and then 10 mL of the FLTPR analytical buffer was added to the vial. Then 0.2 mL of 250 mM of a probe solution was added to every 10 mL Fluo-4 Direct™ crystal to a final assay concentration of 2.5 mM. The solution was vortexed and stood for >5 min at a dark place. 2×Fluo-4 Direct™ uptaking dye was freshly prepared daily. • 2) Compound preparation • a. Preparation of compound plate: all reference and test compounds were serially diluted 4-fold in 10 points by using an Echo liquid processor and then 900 nL of the diluted compounds were transferred to a compound plate. • b. 30 μL FLIPR analytical buffer was added to the compound plate and the plate was centrifuged at 300 g for 1 minute. • 3) FLIPR analysis • a. With regard to ADORA3 receptor: firstly, the cell plate was taken out from a culture box. The culture medium was then aspirated and 20 μL of the FLIPR analytical buffer was added. The cell plate was placed in an incubator for 45 minutes and at a room temperature for 15 minutes. • b. To run an experimental solution on […], 10 μL of the FLIPR analytical buffer was transferred from the compound plate to a cell plate, and then the fluorescent signal was read. Then 10 μL of a compound solution was transferred from the compound plate to the cell plate and the fluorescence signal was read. “Max−min” was calculated from Reader 91 to an allowed maximum value. • c. With regard to agonist: activation %=(RLU−LC)/(HC−LC)*100, • wherein RLU=relative light unit, allowed maximum signal was 91; HC=average signal of high concentration agonist; and LC=mean signal of DMSO well. • d. Data were fitted to a model “log (agonist) versus response-variable slope” by using GraphPad Prism 5 to determine an EC50 value. • e. […] 2. Test Result
Background: Calcium flux is commonly read through the fluorescence of an indicator in the cells.

Data set [2] has as its target T2, ADORA3 receptor (CHO cells stably expressing ADORA3 receptor) (Homo sapiens, UniProt P0DMS8).
T2 construct: expressed in transfected cells
T2 sequence (P0DMS8 1-318): T1 sequence (P0DMS8 1-318)
Kind of data set: Effect of compound on intracellular cAMP level by adenosine A3 receptor agonism. The data set is classed as cell-based. As to conditions: forskolin-stimulated. The method, boiled down:
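Agonism read as change in forskolin-stimulated cAMP by TR-FRET competition (Eu-cAMP tracer, ULight anti-cAMP antibody). Compound tested as 10 three-fold dilutions on ADORA3-CHO cells in buffer containing rolipram, incubated at 37 °C. Hill fit of % activation against log concentration gives EC50.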
A general note: Changes in cAMP serve as a functional read-out for many G protein-coupled receptors.

As for `CNC(=O)[C@H]1OC(n2cnc3c(NCc4cc(C)cc(C)c4)nc(-c4cccnc4)nc32)[C@H](O)[C@@H]1O` (stereo in doubt) [compound 297, (2S,3S,4R,5S)-5-(6-((3,5-dimethylbenzyl)amino)-2-(pyridin-3-yl)-9H-purin-9-yl)-3,4-dihydroxyl-N-methyltetrahydrofuran-2-carboxamide], in data set [1], the “AUC_D” value is 2349.41 kg·ng·h/mL/mg. For the same molecule, the EC50 (as a rule, the concentration needed to bring the measured effect to its halfway point) at ADORA3 receptor is 12.9 nM.

As to `CNC(=O)[C@H]1OC(n2cnc3c(NCc4cc(C)cc(C)c4)nc(-c4cncc(OC)c4)nc32)[C@H](O)[C@@H]1O` (stereo in doubt) [compound 298, (2S,3S,4R,5S)-5-(6-((3,5-dimethylbenzyl)amino)-2-(5-methoxypyridin-3-yl)-9H-purin-9-yl)-3,4-dihydroxyl-N-methyltetrahydrofuran-2-carboxamide], the “AUC_D” value in data set [1] is 4423.94 kg·ng·h/mL/mg. Also, the half-maximal effective concentration (EC50) on ADORA3 receptor came to 37 nM.

As to `CCNC(=O)[C@H]1O[C@@H](n2cnc3c(NC)nc(-c4cncc(F)c4)nc32)[C@H](O)[C@@H]1O` [compound 43, (2S,3S,4R,5R)-N-ethyl-5-(2-(5-fluoropyridin-3-yl)-6-(methylamino)-9H-purin-9-yl)-3,4-dihydroxyl-tetrahydrofuran-2-formamide], the “AUC_D” value in data set [1] is 87.99 kg·ng·h/mL/mg. Moreover, the half-maximal effective concentration (EC50) at ADORA3 receptor is 11.4 nM.

On to `CCNC(=O)[C@H]1O[C@@H](n2cnc3c(NC)nc(-c4cncc(C)c4)nc32)[C@H](O)[C@@H]1O` [compound 72, (2S,3S,4R,5R)-N-ethyl-3,4-dihydroxyl-5-(6-(methylamino)-2-(5-methylpyridin-3-yl)-9H-purin-9-yl)tetrahydrofuran-2-carboxamide], for which, in data set [1], the “AUC_D” value worked out at 75.08 kg·ng·h/mL/mg. For the same molecule, the EC50 on ADORA3 receptor turned out to be 20.6 nM.

In the case of `CCNC(=O)[C@H]1O[C@@H](n2cnc3c(NC)nc(-c4cncc(Cl)c4)nc32)[C@H](O)[C@@H]1O` [compound 90, (2S,3S,4R,5R)-5-(2-(5-chloropyridin-3-yl)-6-(methylamino)-9H-purin-9-yl)-N-ethyl-3,4-dihydroxyltetrahydrofuran-2-carboxamide], at ADORA3 receptor, the EC50 was 25.2 nM.

Regarding `CNC(=O)[C@H]1O[C@@H](n2cnc3c(NCc4cccc(OC)n4)nc(-c4cncc(Cl)c4)nc32)[C@H](O)[C@@H]1O` [compound 159], the EC50 amounted to 4.42 nM in data set [2] and 59.3 nM at ADORA3 receptor.

As to `CNC(=O)[C@H]1O[C@@H](n2cnc3c(NCc4cc(Cl)ccn4)nc(-c4cncc(Cl)c4)nc32)[C@H](O)[C@@H]1O` [compound 184, (2S,3S,4R,5R)-5-(6-((4-chloropyridin-2-yl)methylamino)-2-(5-chloropyridin-3-yl)-9H-purin-9-yl)-3,4-dihydroxyl-N-methyl-tetrahydrofuran-2-formamide], the EC50 is less than 0.51 nM in data set [2] and 13 nM at ADORA3 receptor.

In the case of `CNC(=O)[C@H]1O[C@@H](n2cnc3c(NCc4cc(C)ccn4)nc(-c4cncc(C)c4)nc32)[C@H](O)[C@@H]1O` [compound 190, (2S,3S,4R,5R)-3,4-dihydroxyl-N-methyl-5-(6-((4-methylpyridin-2-yl)methylamino)-2-(5-methylpyridin-3-yl)-9H-purin-9-yl)-tetrahydrofuran-2-formamide], in data set [1], the “AUC_D” value turned out to be 2205.59 kg·ng·h/mL/mg. At ADORA3 receptor, the EC50 was 9.06 nM.

In the case of `CNC(=O)[C@H]1O[C@@H](n2cnc3c(NCc4cc(C)ccc4F)nc(-c4cccnc4)nc32)[C@H](O)[C@@H]1O` [compound 191, (2S,3S,4R,5R)-5-(6-(2-fluoro-5-methylbenzylamino)-2-(pyridin-3-yl)-9H-purin-9-yl)-3,4-dihydroxyl-N-methyl-tetrahydrofuran-2-formamide], the “AUC_D” value in data set [1] turned out to be 1183.39 kg·ng·h/mL/mg. Also, the concentration giving a half-maximal response (EC50) on ADORA3 receptor was 5.29 nM.

In the case of `CNC(=O)[C@H]1O[C@@H](n2cnc3c(NCc4cc(C)ccc4F)nc(-c4cncc(F)c4)nc32)[C@H](O)[C@@H]1O` [compound 192, (2S,3S,4R,5R)-5-(6-(2-fluoro-5-methylbenzylamino)-2-(5-fluoropyridin-3-yl)-9H-purin-9-yl)-3,4-dihydroxyl-N-methyl-tetrahydrofuran-2-formamide], in data set [1], the “AUC_D” value came to 3329.08 kg·ng·h/mL/mg. The concentration for a half-maximal effect (EC50) on ADORA3 receptor is 9.24 nM.

As to `CNC(=O)[C@H]1O[C@@H](n2cnc3c(NCc4cc(C)ccc4F)nc(-c4cncc(C)c4)nc32)[C@H](O)[C@@H]1O` [compound 193, (2S,3S,4R,5R)-5-(6-(2-fluoro-5-methylbenzylamino)-2-(5-methylpyridin-3-yl)-9H-purin-9-yl)-3,4-dihydroxyl-N-methyl-tetrahydrofuran-2-formamide], the “AUC_D” value in data set [1] came out at 2969.40 kg·ng·h/mL/mg. Also, the concentration for a half-maximal effect (EC50) on ADORA3 receptor was 10.9 nM.

For `CNC(=O)[C@H]1O[C@@H](n2cnc3c(NCc4cc(C)ccc4F)nc(-c4cncc(OC)c4)nc32)[C@H](O)[C@@H]1O` [compound 194, (2S,3S,4R,5R)-5-(6-(2-fluoro-5-methylbenzylamino)-2-(5-methoxypyridin-3-yl)-9H-purin-9-yl)-3,4-dihydroxyl-N-methyl-tetrahydrofuran-2-formamide], the “AUC_D” value in data set [1] turned out to be 2043.13 kg·ng·h/mL/mg. In addition, the EC50 at ADORA3 receptor is 10.7 nM.

For the molecule `CNC(=O)[C@H]1O[C@@H](n2cnc3c(NCc4cccc(Cl)n4)nc(-c4cncc(F)c4)nc32)[C@H](O)[C@@H]1O` [compound 227, (2S,3S,4R,5R)-5-(6-(((6-chloropyridin-2-yl)methyl)amino)-2-(5-fluoropyridin-3-yl)-9H-purin-9-yl)-3,4-dihydroxyl-N-methyltetrahydrofuran-2-carboxamide], the “AUC_D” value in data set [1] is 233.07 kg·ng·h/mL/mg. Also, on ADORA3 receptor, the concentration for a half-maximal effect (EC50) amounted to 3.53 nM.

On to `CNC(=O)[C@H]1O[C@@H](n2cnc3c(NCc4cc(C)cc(C)c4)nc(-c4cncc(C)c4)nc32)[C@H](O)[C@@H]1O` [compound 231, (2S,3S,4R,5R)-5-(6-((3,5-dimethylbenzyl)amino)-2-(5-methylpyridin-3-yl)-9H-purin-9-yl)-3,4-dihydroxyl-N-methyltetrahydrofuran-2-carboxamide], for which, in data set [1], the “AUC_D” value was found to be 17240.04 kg·ng·h/mL/mg. The half-maximal effective concentration (EC50) at ADORA3 receptor was 11.2 nM.

As to `CNC(=O)[C@H]1O[C@@H](n2cnc3c(NCc4cc(OC)ccn4)nc(-c4cncc(Cl)c4)nc32)[C@H](O)[C@@H]1O` [compound 296, (2S,3S,4R,5R)-5-(2-(5-chloropyridin-3-yl)-6-(((4-methoxypyridin-2-yl)methyl)amino)-9H-purin-9-yl)-3,4-dihydroxyl-N-methyltetrahydrofuran-2-carboxamide], the EC50 in data set [2] amounted to 1.28 nM; on ADORA3 receptor, 53.6 nM.
